For series [1] the following is noted: cited from earlier work.
For series [2] the following is noted: Table 8, cited from earlier work; for pKa: first value where several are printed.
Series [3] can be described thus: Pharmacokinetics of tacrolimus encapsulated in E100, sublingual cross-over, rats (2022NCM003). The class given is in vivo, Sprague Dawley rats. Particulars: 5 mg per kg. The method, then:
The pharmacokinetic profile of three different nanoparticular formulations of Tacrolimus after sublingual administration in five naïve male Sprague Dawley rats with 14 days wash-out interval was evaluated. To eliminate the inter-individual variability, the same animals were administered in an intra-individual three-way cross-over after washout period. The animals were housed in a separate temperature-controlled room (20-24° C.) and maintained in a 12 h light/12 h dark cycle. Food and water were available ad libitum throughout the duration of the study.
Formulations were freshly prepared on the day of application using the procedure described herein and administered freshly after arrival.
Dose (and applied volume of the nanosuspension) was adjusted individually to the body weight of the animal.
Test item formulations were administered sublingual to 5 animals with […] wash-out intervals at a dose of 5 mg per kg body weight. Application procedure and blood sampling was as described before.
Tacrolimus whole blood concentrations were analysed by LC-MS/MS and Cmax, tmax, and AUC were calculated.
Preparation of working solutions for calibration standards and quality controls Individual stock solutions were used for preparation of calibration standards and quality control samples (QCs).
All samples were kept on ice until the addition of the precipitation reagent. […]

A short description of series [4]: Saturation solubility of sirolimus in selected solvents. The class given is physicochemical. Particulars: thermodynamic from solid, room temperature, HPLC of supernatant. The method, then: One task is the production of a highly concentrated dispersion. The prerequisite for this is the use of a solvent for the production of the dispersion in which the active substance has a high solubility. […] Crystalline active ingredient was added to a defined amount of solvent at room temperature while stirring until an insoluble sediment was formed.

The nature of series [5]: Pharmacokinetics of sirolimus encapsulated in E100, sublingual, rats (2022NCM001). The class given is in vivo, Sprague Dawley rats. Conditions: 5 mg per kg. Here is the method: Naïve, adult male Sprague Dawley rats of around 300 g body weight were housed in a separate temperature-controlled room (20-24° C.) and maintained in a 12 h light/12 h dark cycle. Food and water were available ad libitum throughout the duration of the study.
Formulation was freshly prepared on the day of application. It was administered sublingually to each animal at a dose of 5 mg per kg body weight.
For sublingual administration, rats were shortly anaesthetized with isoflurane. Prior to application, the sublingual area was blotted dry with cotton swabs. The appropriate volume of the formulation was applied under the tongue with a pipette. The animals were kept in a sitting position for 5 minutes. After 5 minutes the area under the tongue was blotted dry again to avoid oral administration of the remaining suspension. Then the animals were placed into the cage until recovery.
Blood samples were collected by puncture of the lateral tail vein at the following time points: predose, 15 min, 30 min, 1 h, 2 h, 4 h, 8 h and 24 h post dose. At each of the designated time points 20 μl blood was collected from the tail vein into K3-EDTA capillaries (Minivette POCT, […]). The blood samples were transferred into polypropylene tubes and frozen on dry ice within 1-2 min. of sampling and stored at −20° C. until LC-MS analysis. […]

Series [6] in a line: Pharmacokinetics of two sirolimus E100 nanoformulations, sublingual cross-over, rats (2022NCM002). The format is in vivo. Conditions: two nanoparticular formulations (FLM04_025, FLM02_b230). The method, then:
To eliminate the inter-individual variability, the same animals were administered in an intra-individual two-way cross-over after an appropriate washout period.
Two different approaches were followed in that a surfactant was included either during precipitation (FLM04_025) or after precipitation (FLM02_b230) as shown in FIG. 32.
Formulations were freshly prepared on the day of application using the procedure as described herein.
Test item formulations were administered sublingual to animals with 7 days wash-out intervals at a […] per kg body weight. Application procedure, blood sampling and their as quantification was as described before.

Where [7] appears, read: nanoparticular dispersion based on Eudragit E100, rats.

Values after ≈ are worked out from the molar mass of the structure shown. Where two headings read alike, the source gives them in different places. Bounds are passed on as bounds.

As usually defined, the Log P is the decadic logarithm of the partition coefficient of the neutral form, usually between octanol and water. In the case of `CCC(C)n1ncn(-c2ccc(N3CCN(c4ccc(OCC5COC(Cn6cncn6)(c6ccc(Cl)cc6Cl)O5)cc4)CC3)cc2)c1=O` (stereo not drawn) [Itraconazole], in series [1], the “Log P” value was 5.66 and the Water solubility was 9.6 µg/mL.
As usually defined, the pKa is the pH at which an ionisable group is half protonated. Turning to `O=C(O)CC(O)C(=O)O` (stereo not drawn) [Malic acid], in series [2], the Water solubility was 218 mg/mL and the pKa is on record as 3.2.
Take `CCCCCCCC(=O)O` [Octanoic Acid]: in series [2], the pKa is 5.19.
Consider `CCCCCCCC/C=C\CCCCCCCC(=O)O` [Oleic Acid], for which, in series [2], the Water solubility was 0.0001 mg/mL.
Consider `CCCCCCCCCCCCCCCCCC(=O)O` [Stearic Acid], for which the pKa in series [2] is reported as 4.95.
Turning to `C=CC[C@@H]1/C=C(\C)C[C@H](C)C[C@H](OC)[C@H]2O[C@@](O)(C(=O)C(=O)N3CCCC[C@H]3C(=O)O[C@H](/C(C)=C/[C@@H]3CC[C@@H](O)[C@H](OC)C3)[C@H](C)[C@@H](O)CC1=O)[C@H](C)C[C@@H]2OC` [Tacrolimus], in series [3] (setting [7]), the “detection in blood after sublingual administration” value is recorded as “detected in the blood of all rats”. The “time of maximum concentration (t_max)” value in series [3] (nanoparticular dispersion based on Eudragit E100, whole blood, rats) was found to be 30 min. In series [1], the “Log P” value is reported as 4.5.
`CCCCC(=O)O` [Valeric acid]: in series [2], the Water solubility is 40 mg/mL and the pKa is listed as 5.01.
In general, solubility refers to how much of the substance goes into solution per volume. With `CO[C@H]1C[C@@H]2CC[C@@H](C)[C@@](O)(O2)C(=O)C(=O)N2CCCC[C@H]2C(=O)O[C@H]([C@H](C)C[C@@H]2CC[C@@H](O)[C@H](OC)C2)CC(=O)[C@H](C)/C=C(\C)[C@@H](O)[C@@H](OC)C(=O)[C@H](C)C[C@H](C)/C=C/C=C/C=C/1C` [sirolimus], the solubility in series [4] (acetone, organic solvent or mixture, saturation solubility in Acetone (polar aprotic)) is not below 200 mg/mL; in series [4] (ethanol, organic solvent or mixture, saturation solubility in Ethanol (polar protic)), 179 mg/mL (≈ 196 mM); in series [4] (iso-propanol, organic solvent or mixture, saturation solubility in iso-Propanol (polar protic)) it was 25 mg/mL (≈ 27.3 mM); in series [4] (methanol, organic solvent or mixture, saturation solubility in Methanol (polar protic)), 246 mg/mL (≈ 269 mM); in series [4] (water, saturation solubility in Water (polar protic)) it was approximately 0.001 mg/mL (≈ 0.00109 mM). For the same molecule, the “time of maximum concentration (t_max)” value in series [5] (5 min application, nanoparticular dispersion based on Eudragit E100, blood, rats) is 30 min. Further, the “detection in blood after sublingual administration” value in series [5] (setting [7]) and in series [6] was “detected in the blood of all rats” in each case. Also, the “Log P” value in series [1] is reported as 4.56.

The values above are taken from patent US20260232603A1, “A METHOD OF PREPARING AN AQUEOUS DISPERSION OF NANOPARTICLES” (IQ MEDICAL GMBH, priority 2023, published 2026).
